The nature of the series: Dissolution of RebD and RebM. It is filed as physicochemical. The conditions noted are these: without maltooligosaccharides.

For `C=C1C[C@@]23CC[C@H]4[C@@](C)(CCC[C@@]4(C)C(=O)O[C@@H]4O[C@H](CO)[C@@H](O)[C@H](O)[C@H]4O[C@@H]4O[C@H](CO)[C@@H](O)[C@H](O)[C@H]4O)[C@@H]2CC[C@]1(O[C@@H]1O[C@H](CO)[C@@H](O)[C@H](O[C@@H]2O[C@H](CO)[C@@H](O)[C@H](O)[C@H]2O)[C@H]1O[C@@H]1O[C@H](CO)[C@@H](O)[C@H](O)[C@H]1O)C3` [RebD, Rebaudioside D], the dissolution entry is listed as “do not dissolve completely”.
In the case of `C=C1C[C@@]23CC[C@H]4[C@@](C)(CCC[C@@]4(C)C(=O)O[C@@H]4O[C@H](CO)[C@@H](O)[C@H](O[C@@H]5O[C@H](CO)[C@@H](O)[C@H](O)[C@H]5O)[C@H]4O[C@@H]4O[C@H](CO)[C@@H](O)[C@H](O)[C@H]4O)[C@@H]2CC[C@]1(O[C@@H]1O[C@H](CO)[C@@H](O)[C@H](O[C@@H]2O[C@H](CO)[C@@H](O)[C@H](O)[C@H]2O)[C@H]1O[C@@H]1O[C@H](CO)[C@@H](O)[C@H](O)[C@H]1O)C3` [RebM, Rebaudioside M], the dissolution entry is recorded as “do not dissolve completely”.

For the origin of these results see patent US12185743B2, “Processes for transglucosylation of steviol glycosides” (Beijing Gingko-Group Biological Technology Co., Ltd., priority 2019, dated 2025).
